According to patent US20110223131A1, “ANTIVIRAL COMPOUNDS” (Gilead Sciences, Inc., priority 2010, published 2011):
Converted amounts (≈) assume the structure as drawn. “And” between values parts separate entries of the source, which are not always exact repeats. Identical values can stand only once. Like-named read-outs stand apart in the source and are kept apart here.

Legend:
HIV-IIIb [1] = assay: Antiviral assay in MT-2 / MT-4 cells infected with HIV-IIIb (CellTiter-Glo readout); assay type: cell-based; conditions: Human immunodeficiency virus 1, MT4, 120 h, 5 days, cell line (MT-2 or MT-4) not printed in Table 1
Method: For the antiviral assay utilizing MT-2 cells, 50 μL of 2× test concentration of 5-fold serially diluted compound in culture medium with 10% FBS was added to each well of a 96-well plate (9 concentrations) in triplicate. MT-2 cells were infected with HIV-IIIb at a multiplicity of infection (m.o.i) of 0.01 for 3 hours. Fifty microliters of infected cell suspension in culture medium with 10% FBS (˜1.5×10^4 cells) was then added to each well containing 50 μL of diluted compound. The plates were then incubated at 37° C. for 5 days. For the antiviral assay utilizing MT-4 cells, 20 μL of 2× test concentration of 5-fold serially diluted compound in culture medium with 10% FBS was added to each well of a 384-well plate (7 concentrations) in triplicate. MT-4 cells were next mixed with HIV-IIIb at an m.o.i. of 0.1 and 20 μL of virus/cell mixture (˜2000 cells) was immediately added to each well containing 20 μL of diluted compound. The plates were then incubated at 37° C. for 5 days. After 5 days of incubation, 100 μL of CellTiter-Glo™ Reagent (catalog #G7571, Promega Biosciences, Inc., Madison, Wis.) was added to each well containing MT-2 cells and 40 μl to each well containing MT-4 cells. Cell lysis was carried out by incubating at room temperature for 10 min and then chemiluminescence was read.

[2] = Cytotoxicity (CC50) in MT-4 cells; assay type: cell-based; conditions: human
[3] = Aqueous solubility in buffers, HPLC-UV; assay type: physicochemical; conditions: aqueous buffer, thermodynamic from solid, 24 to 48 hours
Method: Excess solid material was added to aqueous buffers at pH 2 and pH 7 in glass vials to form suspensions. The suspension was stirred on a stirrer plate with a magnetic stirrer bar at room temperature for periods of 24 to 48 hours. The suspension was filtered through a 0.22 micron PVDF syringe filters. The clear filtrate was diluted in acetonitrile and analyzed by HPLC-UV against an external standard for the compound concentration.

[4] = Cytotoxicity (CC50) in MT-2 cells; assay type: cell-based; conditions: human
[5] = Oral bioavailability from crystalline suspension in dog (plasma PK, LC/MS/MS); assay type: in vivo, beagle dogs; conditions: for bioavailability: read-out: F (oral bioavailability)
Method: Oral Bioavailability-Determination of Oral Bioavailability of Integrase Inhibitors from Crystalline Suspension in Dog The in-life phase of these studies was carried out at SRI, Menlo Park, Calif. Both Compound (Ia) and Comparator Compound were formulated in 0.5% HPMC […], 0.2% Tween 20, 0.9% benzyl alcohol, and 98.4% water. Both were at 2.00 mg/mL for oral dosing. Each dosing group consisted of 3 male, beagle dogs. At dosing, the animals weighed an average of 10.9 kgs for Compound (Ia) and 10.5 kgs for Comparator Compound. The animals were fasted overnight prior to dose administration and up to 4 hr after dosing. The dogs were pre-treated with pentagastrin at 30 minutes prior to dosing by IM injection. The Compound (Ia) suspension was administered by oral gavage at 1.5 mL/kg to deliver a total dose of 3 mg/kg, while the Comparator Compound suspension was administered by oral gavage at 2 mL/kg for a dose of 4 mg/kg. Serial venous blood samples (approximately 0.8-1.0 mL each) were taken at specified time points (range t=0 to t=24 hr) after dosing from each animal. The blood samples were collected into VacutainerTM tubes containing EDTA-K3 as the anti-coagulant and were immediately placed on wet ice pending centrifugation for plasma. Dosing solutions were analyzed using un-used portions of the dosing solutions, and aliquots of approximately 1 mL of each dosing solution were saved. The concentration of compound in the dosing solution was measured with an HPLC-UV method. Comparator Compound (nominal dose of 4 mg/kg) was dosed at 9387 nmoles/kg, while Compound (Ia) (nominal dose of 3 mg/kg) was dosed at 6563-6566 nmoles/kg. An LC/MS/MS method was used to measure the concentration of test compounds in plasma. Non-compartmental pharmacokinetic analysis was performed on the plasma concentration-time data. The bioanalytical method consisted of treating 100 μL of each plasma sample with 200 μL of acetonitrile (ACN) and 200 μL acetonitrile (ACN) containing internal standard. After protein precipitation and centrifugation, 100 μL of the supernatant was transferred to a clean 96-well plate and mixed with 100 μL of water. An aliquot of 10 μL of the above solution was injected onto an API-4000 triple quadrupole LC/MS/MS system. A Hypersil Gold (#25005-053030, Thermo Electron Corporation) column was used. Mobile phase A contained water with 0.1% formic acid and 1% IPA. Mobile phase B contained acetonitrile with 0.1% formic acid and 1% IPA.

HIV-IIIb [6] = conditions: MT-2 cells; as reported in WO 2010/011959; cited from earlier work
[7] = PO 3 mg/kg suspension, dog plasma, individual dogs, 3 mg/kg
[8] = male, beagle, dog, plasma, po, 3 mg/kg, PO 3 mg/kg suspension, dog plasma, individual dogs
[9] = male, beagle, dog, plasma, po, 3 mg/kg, PO 3 mg/kg suspension, dog plasma, mean n = 3
[10] = PO 4 mg/kg suspension, dog plasma, individual dogs, 4 mg/kg
[11] = male, beagle, dog, plasma, po, 4 mg/kg, PO 4 mg/kg suspension, dog plasma, individual dogs

Work on `CNC(=O)c1c(O)c2ncc(Cc3ccc(F)cc3)c3c2n(c1=O)C[C@](C)(c1nnc(C)o1)O3` [Compound (Ia)] yielded an EC50 (HIV-IIIb [1]) of 3.4 nM, a CC50 at 5 days [2] of 42000 nM and a solubility ([3]; pH 2.2, room temperature) of 29.4 µg/mL (≈ 63.2 µM). For the same molecule, the solubility ([3]; pH 7.3, room temperature) was 31.6 µg/mL (≈ 67.9 µM), the CC50 at 5 days [4] was 5300 nM and the AUCinf [5, 7] was 14.413 µM·h and 21.913 µM·h. For the same molecule, the AUClast [5, 7] was 14.199 µM·h and 21.762 µM·h, the Cmax [5, 7] was 2500 nM and 4240 nM and the Tmax [5, 7] was 2.00 h. The t1/2 [5, 7] was 4.88 h and 3.64 h, the “F (oral bioavailability)” value ([5]; PO 3 mg/kg suspension, dog, individual dogs, 3 mg/kg) was 35.0% and 53.6% and the “F (oral bioavailability)” value ([5]; PO 3 mg/kg suspension, pentagastrin pretreated dogs, mean n = 3) was 45.2%. The CL ([5]; listed in table of PO 3 mg/kg suspension, dog plasma, individual dogs, 3 mg/kg) was 0.17 L/hr/kg (2×) and 0.15 L/hr/kg, the CL ([5]; listed in table of PO 3 mg/kg suspension, dog plasma, mean n = 3) was 0.16 L/h/kg and the AUC(0-inf) [5, 8] was 19.3 µM·h. The Cmax [5, 8] was 3160 nM, the half-life [5, 8] was 4.16 h and the AUC(0-t) ([5]; male, beagle, dog, plasma, po, 3 mg/kg, PO 3 mg/kg suspension, dog plasma, individual dogs, read-out: AUClast) was 19.1 µM·h. For the same molecule, the Tmax ([5]; male, beagle, dog, plasma, po, 3 mg/kg, PO 3 mg/kg suspension, dog plasma, individual dogs, read-out: Tmax) was 1 h, the AUC(0-inf) [5, 9] was 18.6 µM·h and the Cmax [5, 9] was 3300 ± 878 nM. For the same molecule, the half-life [5, 9] was 4.22 h, the AUC(0-t) ([5]; male, beagle, dog, plasma, po, 3 mg/kg, PO 3 mg/kg suspension, dog plasma, mean n = 3, read-out: AUClast) was 18.3 µM·h and the Tmax ([5]; male, beagle, dog, plasma, po, 3 mg/kg, PO 3 mg/kg suspension, dog plasma, mean n = 3, read-out: Tmax) was ~1.33 h. The bioavailability ([5]; male, beagle, dog, plasma, po, 3 mg/kg, PO 3 mg/kg suspension, dog, individual dogs) was 47% and the bioavailability ([5]; male, beagle, dog, plasma, po, 3 mg/kg, PO 3 mg/kg suspension, pentagastrin pretreated dogs, mean n = 3) was 45%.

For `CNC(=O)c1c(O)c2ncc(Cc3ccc(F)cc3)c3c2n(c1=O)C[C@H](C(=O)NC)O3` [Comparator Compound, reference compound], the EC50 (HIV-IIIb [6]) is given as 6.8 nM, the solubility ([3]; pH 2.2, room temperature) is given as 1 µg/mL (≈ 2.35 µM) and the solubility ([3]; pH 7.3, room temperature) is given as 1 µg/mL (≈ 2.35 µM). For the same molecule, the AUClast [5, 10] was 0.385 µM·h and 0.0898 µM·h and 0.0552 µM·h, the Cmax [5, 10] was 58.5 nM and 16.3 nM and 11.3 nM and the Tmax [5, 10] was 2.00 h. For the same molecule, the “F (oral bioavailability)” value ([5]; PO 4 mg/kg suspension, dog, individual dogs, 4 mg/kg) was 0.5% and 0.1% (2×), the CL ([5]; listed in table of PO 4 mg/kg suspension, dog plasma, individual dogs, 4 mg/kg) was 0.13 L/h/kg and 0.14 L/h/kg and 0.19 L/h/kg and the CL ([5]; listed in table of PO 4 mg/kg suspension, dog plasma, mean n = 3) was 0.15 L/h/kg. The AUC(0-inf) ([5]; male, beagle, dog, plasma, po, 4 mg/kg, PO 4 mg/kg suspension, dog plasma, Mean column (only one dog calculable)) was 0.427 µM·h, the AUC(0-inf) [5, 11] was 0.427 µM·h and the half-life [5, 11] was 2.97 h. It also gave a Tmax ([5]; male, beagle, dog, plasma, po, 4 mg/kg, PO 4 mg/kg suspension, dog plasma, individual dogs, read-out: Tmax) of 4 h, a Cmax ([5]; male, beagle, dog, plasma, po, 4 mg/kg, PO 4 mg/kg suspension, dog plasma, mean n = 3) of 28.7 ± 25.9 nM and an AUC(0-t) ([5]; male, beagle, dog, plasma, po, 4 mg/kg, PO 4 mg/kg suspension, dog plasma, mean n = 3, read-out: AUClast (AUC0-t)) of 0.177 ± 0.181 µM·h. It also gave a Tmax ([5]; male, beagle, dog, plasma, po, 4 mg/kg, PO 4 mg/kg suspension, dog plasma, mean n = 3, read-out: Tmax) of 2.67 h and a bioavailability ([5]; male, beagle, dog, plasma, po, 4 mg/kg, PO 4 mg/kg suspension, pentagastrin pretreated dogs, mean n = 3) of 0.2%.
